Measured values from patent US20060167057A1, “Compounds for the treatment of CNS and amyloid associated diseases” (priority 2004, published 2006).

Tests used:
[1] = target: T1, L1 transport system (large neutral amino acid carrier, L1-system carrier) (Rattus norvegicus, UniProt Q63016); experiment: Competitive binding assay to the brain L1 transport system (L-[U-14C]phenylalanine on rat primary cerebrovascular endothelial cells)
T1 construct: functionality of their endogenous transporters such as the L1-system carrier; endogenous in cells; host or cells: rat primary cerebrovascular (brain microcapillary) endothelial cells, RBEC
T1 sequence (Q63016 whole entry): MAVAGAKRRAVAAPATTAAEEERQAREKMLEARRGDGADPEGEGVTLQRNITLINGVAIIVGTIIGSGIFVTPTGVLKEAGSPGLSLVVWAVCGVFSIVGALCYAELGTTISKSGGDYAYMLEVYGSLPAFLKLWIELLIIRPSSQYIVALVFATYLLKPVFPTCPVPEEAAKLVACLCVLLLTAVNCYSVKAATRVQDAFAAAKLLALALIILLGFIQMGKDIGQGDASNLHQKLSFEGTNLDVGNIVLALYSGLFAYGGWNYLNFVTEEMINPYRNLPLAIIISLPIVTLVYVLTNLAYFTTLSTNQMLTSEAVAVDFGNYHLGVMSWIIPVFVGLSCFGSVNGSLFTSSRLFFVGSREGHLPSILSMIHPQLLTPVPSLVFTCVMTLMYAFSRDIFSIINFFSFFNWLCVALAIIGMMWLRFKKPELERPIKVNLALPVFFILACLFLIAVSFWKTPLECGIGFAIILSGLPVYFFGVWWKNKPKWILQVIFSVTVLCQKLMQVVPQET
T1 sequence (Q794F9 whole entry partner): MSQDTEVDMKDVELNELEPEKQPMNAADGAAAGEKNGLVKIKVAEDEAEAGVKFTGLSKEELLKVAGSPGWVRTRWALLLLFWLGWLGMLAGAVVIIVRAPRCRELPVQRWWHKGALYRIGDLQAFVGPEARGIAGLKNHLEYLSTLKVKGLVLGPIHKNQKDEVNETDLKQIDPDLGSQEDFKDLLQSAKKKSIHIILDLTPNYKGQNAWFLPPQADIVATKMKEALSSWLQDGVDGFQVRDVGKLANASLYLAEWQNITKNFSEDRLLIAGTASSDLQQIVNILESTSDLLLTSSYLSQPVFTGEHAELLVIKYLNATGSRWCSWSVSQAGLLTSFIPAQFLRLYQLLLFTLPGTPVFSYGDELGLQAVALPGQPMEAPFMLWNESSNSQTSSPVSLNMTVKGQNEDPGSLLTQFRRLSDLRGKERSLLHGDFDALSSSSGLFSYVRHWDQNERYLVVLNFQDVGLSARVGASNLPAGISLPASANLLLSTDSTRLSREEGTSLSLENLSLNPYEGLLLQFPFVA
Summary of the method: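 Cells were primary cerebral microvascular endothelial cells from cortices of 24-day-old rats, isolated by collagenase/DNAse digestion, dextran separation and mesh filtration.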

HUVEC = experiment: Cellular toxicity assay on HUVEC (WST-1 viability); type: cell-based, human; settings: 24 hours, <75% considered toxic
Description: Compound samples in PBS (without Ca^+2, Mg^+2)-glucose 3 mM-HEPES 10 mM—DMSO 1%, as prepared in Example 1, were thawed and left for at least 30 minutes at 20-23° C. before preparation of the following sub-dilutions for the compound toxicity assay: • 100 μL of stock compound solution were added to 900 μL PBSD-1 [diluted 1:10 for a final 1:10 dilution] • 100 μL (1/10 dilution above) were added to 900 μL PBSD-1 [diluted 1:10 for a final 1:100 dilution] Culture of HUVEC
Endothelial cells from human umbilical cord (HUV-EC-C or HUVEC) were purchased form American Type Culture Collection (ATCC, CRL-1730) and cultured according to the manufacturer's protocol. A 1-mL frozen aliquot of sub-cultured cells was thawed in a 37° C. water bath and centrifuged following addition of 5 mL of medium. After re-suspension in 5 mL medium, cells were seeded in a TC80 cm^2 flask pre-coated with 0.1% gelatin. Culture medium was replaced every 3-4 days and cells monitored until confluency was reached.
A sterile stock solution of 0.5 mM of camptothecin (Sigma) was prepared by dissolving a weighed amount of 0.0085 g in 50 mL of double distilled water at 37° C. in a water bath. The solution was vortexed, then filtered through a 0.22-μm filter unit and kept at 4° C. for the duration of the toxicity assays.
From the stock solution, concentrations of 60, 75, 80, 100, 150, 200 and 250 nM of camptothecin were prepared in culture diluent containing 1% DMSO.
HUVEC were cultured for 4 days in gelatin-coated 96-well plates, following seeding with 40 μL/well of a cellular suspension of 1×10^5 cells/mL. Culture media was replaced every 3-4 days of culture until confluency was reached.
On the day of the toxicity assay, the conditioned culture media was removed from the wells and 90 μL of culture medium containing 1% DMSO was distributed in the plate. A volume of 10 μL of the stock solution, 1:10 and 1:100 dilutions of the compounds in PBS-glucose-HEPES-DMSO 1% were added to the appropriate wells (100-μL total volume/well). A volume of 100 μL of camptothecin dilutions and culture medium containing 1% DMSO was also distributed into the plate. Cells were incubated at 37° C. of 24 hours and then 10 μL of the tetrazolium salt WST-1 solution were added to cells and incubated for an extra 90 minutes at 37° C. The absorbance that was associated to the cellular viability was measured at 450nm on the SpectraFluor Tecan reader, and the raw data processed.
The intrinsic cellular toxicity of the compounds was determined for each concentration of every compound on HUVEC. The viability percentage was assessed (OD sample/OD control) ×100% and any value <75% viability was considered toxic. The following table, Table 5, lists the few compounds that presented at least one toxic concentration.

[2] = tested on: Apolipoprotein E-Aβ interaction; experiment: Apolipoprotein E-Aβ interaction assay; type: binding; settings: 200 μM test compound, ApoE/Aβ alone = 100%
Description: The level of interaction between Apolipoprotein E and Aβ was measured for five inventive compounds to determine whether, under the specific conditions of the present example, the compounds would inhibit the interaction. Nunc-Immuno Maxisorp 96-well microtiter plates were coated with 1 μM HFIP-disaggregated Aβ in 0.1 M NaHCO3 pH 9.6 for 2 hours and 15 minutes at 37°, washed two times in TBS (100 mM Tris-HCl, pH 7.5, 150 mM NaCl), and wells were blocked with 1% fatty-acid free BSA in TBS overnight at 4°.
Test compounds were prepared in either TBS or DMSO at a final concentration of either 2 mM or 10 mM respectively. Recombinant ApoE (Fitzgerald Industries Int.) was prepared in 700 mM NH4HCO3 at a final concentration of 0.44 mg/mL to prevent monomer assembly and stored as aliquots at −20°. 3.41 μg/mL of purified ApoE was pre-incubated in the presence of 200 μM test compounds, all in triplicate, in 1% BSA/TBS in a 96-well transfer plate for one hour and then added to the Aβ-coated wells for an additional two hours with gentle shaking at 37° to allow ApoE/Aβ association. Plates were washed three times in TBS to remove excess ApoE and incubated first with 0.125 μg/mL mouse monoclonal anti-ApoE antibody (BD Bioscience) for 1 hour, washed and then incubated with 0.26 μg/mL horse-radish peroxidase conjugated goat anti-IgG antibody (Pierce) for 1 hour in 1% BSA/TBS-T (0.05% Tween-20). After washing, wells were incubated with Sure Blue™ TMB-1 peroxidase substrate (KPL) for 30 minutes. The reaction was stopped using 1N HCl. Absorbance values at 450 nm were measured using TECAN plate reader and reflect the amount of ApoE bound to Aβ in the wells. Data were expressed as a percentage of ApoE/Aβ complexes by arbitrarily setting ApoE/Aβ alone at 100%. All compounds were tested at least twice.

SH-SY5Y cells = experiment: Hoechst staining assay of Aβ1-42-induced apoptosis; type: cell-based; settings: Homo sapiens, 10 μM Aβ1-42, 200 μM compound, 24 hours, read-out: inhibition of Aβ-induced cellular apoptosis at DNA level
Description: SH-SY5Y cells were cultured and sub-cultured according to ATCC's recommendations. Cells were grown in a culture medium containing 10% fetal bovine serum (FBS), 1× non-essential amino acids in a 1:1 mixture of Eagle's minimum essential medium and Ham's F12 medium.
For passage, cells were trypsinized with 0.25% (w/vol) Trypsin/Ethylene-diaminetetraacetic (EDTA) for 5 min at 37° C., and then centrifuged for 5 min at 300× g (GS-6R Beckman Centrifuge). The pellet was resuspended in the culture medium and the cell density was adjusted.
Synthetic Aβ1-42 is purchased from American Peptide Company, Sunnyvale, Calif. […] The exact concentration of the solution is calculated by measuring the optical density at 280 nm. […]
Nuclear morphology was observed using an Olympus fluorescent microscope IX50 equipped with an Olympus Camera (20× objectif and a bandpass filter (Ex/Em: 355 nm/465 nm). Live cells and cells considered morphologically apoptotic were counted. Apoptotic nuclei of undifferentiated SH-SY5Y appear condensed and occasionally fragmented (representative pictures of Hoechst staining are in FIGS. 1A-1B for vehicle and 2A-2B for Aβ).
Five random fields were captured for each condition in a blinded fashion. Apoptotic and normal nuclei in each field were quantified by manual examination. […] The total number of cells counted in each condition ranged from 120 to 550. […]

SMILES	Comparison with the Binding of Phenylalanine ([1]; 10^−4 M)	Comparison with the Binding of Phenylalanine ([1]; 10^−5 M)	Comparison with the Binding of Phenylalanine ([1]; 10^−6 M)	Viability (%) (HUVEC; 10^−4 M)	Viability (%) (HUVEC; 10^−5 M)	Viability (%) (HUVEC; 10^−6 M)	Aβ-ApoE % Complex ([2]; first value of the cell)	Aβ-ApoE % Complex ([2]; second value of the cell)	inhibition at 200 µM (SH-SY5Y cells)
NC(Cc1cccc(CSc2nc3ccccc3o2)n1)C(=O)O (centres unmarked) [Compound 30]	1 (0 < X < 10 Rank 1)	2 (10 < X < 20 Rank 2)	3 (X > 20 Rank 3)	110%	112%	8%	–	–	–
O=C(NC(Cc1cccc(CSc2nnc[nH]2)n1)C(=O)O)NC(c1ccccc1)c1ccccc1 (centres unmarked) [Compound 37]	2 (10 < X < 20 Rank 2)	3 (X > 20 Rank 3)	2 (10 < X < 20 Rank 2)	94%	50%	87%	–	–	–
O=C(O)C(Cc1cccc(CSc2nnc[nH]2)n1)NS(=O)(=O)c1ccc(F)cc1 (centres unmarked) [Compound 66]	2 (10 < X < 20 Rank 2)	3 (X > 20 Rank 3)	0 (X < 0 Rank 0)	117%	114%	67%	–	–	–
COc1ccc(-n2nnnc2SCc2cccc(C[C@H](N)C(=O)O)c2)cc1 [drawing 529]	–	–	–	–	–	–	98%	97%	–
NC(Cc1cccc(CSc2nnnn2-c2ccccc2)c1)C(=O)O (centres unmarked) [drawing 530]	–	–	–	–	–	–	107%	97%	–
N[C@@H](Cc1cccc(CSc2nnc(-c3ccccc3)[nH]2)c1)C(=O)O [drawing 531]	–	–	–	–	–	–	88%	94%	–
N[C@@H](Cc1cccc(CSc2nc3ccccc3[nH]2)n1)C(=O)O [drawing 532]	–	–	–	–	–	–	94%	112%	–
N[C@@H](Cc1cccc(CSc2nnc(-c3ccncc3)o2)c1)C(=O)O [drawing 533]	–	–	–	–	–	–	101%	94%	–
N[C@@H](Cc1cccc(CSc2nnc(-c3ccccc3)[nH]2)c1)C(=O)O [drawing 537]	–	–	–	–	–	–	–	–	22.5%
